According to US20080160033A1, “Novel Screening Method” (Takeda Pharmaceutical Company Limited, priority 2003, published 2008):

Experiments:
[1] = biological target: T1, human 14273 (Homo sapiens, UniProt Q5NUL3); experiment: Change in intracellular calcium level (FLIPR) in CHO-K1 cells transiently expressing human 14273; format: cell-based; details: 30 μM fatty acid (FIG. 1-5); human 14273-expressed CHO-K1 cells; no response in expression vector alone-transfected control cells
T1 construct: expressed in transfected cells; host or cells: CHO-K1, transient transfection (Lipofectamine) with the pAKKO-111-based expression vector
T1 sequence (Q5NUL3 1-361): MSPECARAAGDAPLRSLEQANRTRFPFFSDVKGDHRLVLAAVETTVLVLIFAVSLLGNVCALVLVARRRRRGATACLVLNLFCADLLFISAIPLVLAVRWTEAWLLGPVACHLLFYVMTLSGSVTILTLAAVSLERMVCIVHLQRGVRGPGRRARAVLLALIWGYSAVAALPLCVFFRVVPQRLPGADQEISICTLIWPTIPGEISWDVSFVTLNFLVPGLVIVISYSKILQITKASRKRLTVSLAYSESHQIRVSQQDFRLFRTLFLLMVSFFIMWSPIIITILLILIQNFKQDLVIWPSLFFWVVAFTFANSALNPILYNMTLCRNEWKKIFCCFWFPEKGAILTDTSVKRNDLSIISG
Description: (§1) CHO-K1 cells were incubated in Ham F-12 medium (Invitrogen) containing […] calf fetal serum, unless otherwise indicated. On the day before transfection, the cells were plated in 4.5×10^5/10 cm^2 and incubated at 37° C., for 15 hours or longer in a CO2 incubator adjusted to a 5% CO2 concentration. Transfection was carried out by a modification of the procedure described in the protocol attached to the reagent, using Lipofectamine reagent (Invitrogen). Where a 6-well plate was used for the incubator, the procedure was performed as follows. First, 2 tubes each having a 1.5 ml volume were prepared and 100 μl each of Opti-MEM-1 medium (Invitrogen) were dispensed in each tube. Next, after 1 μg of the expression vector was charged in one tube and in another tube 6 μl of the Lipofectamine reagent was charged, they were mixed and settled at room temperature for 20 minutes. A mixture for transfection of The resulting solution was added with 800 μl of Opti-MEM-1 medium and the resulting mixture for transfection was added to CHO-K1 cells previously washed with Opti-MEM-1 medium, followed by incubation in a CO2 incubator for 6 hours. The cells after incubation were rinsed with PBS (Invitrogen), then scraped off using 0.05% trypsin-EDTA solution (Invitrogen) and recovered by centrifugation. The cells collected were counted and diluted to contain 5×10^4 cells per 100 μl of the medium. The dilution was dispensed in a black walled 96-well plate (Costar) at a density of 100 μl/well, followed by incubation overnight in a CO2 incubator. Various samples were added to the CHO-K1 cells, which transiently expressed the receptor by the transfection procedure described above, and a change in intracellular calcium level was measured using FLIPR (Molecular Device). To measure the change in intracellular calcium level on FILPR; the cells were pretreated as follows. First, an assay buffer was prepared to add fluorescent dye Fluo3-AM (DOJIN) to the cells, or to wash the cells immediately before the FLIPR assay. A solution was prepared by adding 20 ml of 1M HEPES (pH 7.4) (DOJIN) to 1000 ml of HBSS (Invitrogen) (hereinafter, HBSS/HEPES solution). After 710 mg of probenecid (Sigma) was dissolved in 5 nil of 1N NaOH, 5 ml of the HBSS/HEPES solution was further added to the solution and the two solutions were mixed with each other. Then, 10 ml of the solution mixture was added to the HBSS/HEPES solution and the resulting solution was used as the assay buffer. Next, 50 μg of Fluo3-AM was added to 21 μl of DMSO (DOJIN) and an equal volume of 20% pluronic acid (Molecular Probes) was added thereto, followed by mixing them. […] Following the pretreatment above, a change in intracellular calcium level was determined with FLIPR, after various test samples were added.

[2] = biological target: T2, mouse 14273 (Mus musculus, UniProt Q7TMA4); experiment: Change in intracellular calcium level (FLIPR) in CHO-K1 cells transiently expressing mouse 14273; format: cell-based; details: 30 μM fatty acid (FIG. 1-5); mouse 14273-expressed CHO-K1 cells; no response in expression vector alone-transfected control cells
T2 construct: expressed in transfected cells; host or cells: CHO-K1, transient transfection (Lipofectamine) with the pAKKO-111-based expression vector
T2 sequence (Q7TMA4 1-361): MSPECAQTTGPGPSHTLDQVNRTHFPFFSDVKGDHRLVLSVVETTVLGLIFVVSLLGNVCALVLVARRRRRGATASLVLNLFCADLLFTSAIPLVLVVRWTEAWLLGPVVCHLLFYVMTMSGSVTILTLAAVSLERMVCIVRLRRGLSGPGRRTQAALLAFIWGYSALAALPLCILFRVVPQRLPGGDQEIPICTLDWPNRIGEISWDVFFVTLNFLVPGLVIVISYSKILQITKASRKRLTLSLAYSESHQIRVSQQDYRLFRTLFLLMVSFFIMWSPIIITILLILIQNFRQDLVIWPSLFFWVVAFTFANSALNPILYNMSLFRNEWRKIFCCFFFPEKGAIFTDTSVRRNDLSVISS
Description: as §1

[3] = biological target: T1, human 14273; experiment: Effects of fatty acids on cAMP production in human 14273-expressed CHO cells; format: cell-based; details: in the presence of forskolin (2 μM); fatty acid 30 μM (FIG. 9); not observed in control CHO cells without human 14273
Description: After the reaction, the cells were lysed in accordance with the formulation of cAMP Screen (ABI) and the intracellular cAMP level was assayed.

[4] = test system: AtT-20 cells; experiment: Suppression of CRF-induced ACTH secretion from AtT-20 cells; details: 10 nM CRF, 90 minutes; fatty acid with BSA
[5] = test system: 3T3-L1 cells; experiment: Lipolysis (glycerol production) in 3T3-L1 adipose differentiation cells stimulated with isoproterenol; format: cell-based, mouse; details: 1×10^−9 M isoproterenol plus fatty acid, 2 hours; differentiated 3T3-L1 cells
Description: Effects on lipolysis were examined using mouse fibroblast cell line 3T3-L1 cells capable of differentiating into adipocytes. […] The 3T3-L1 cells were plated on a plate and incubated to become confluent. The cells were then treated for 48 hours in the aforesaid medium containing 10 μg/ml of insulin, 0.5 mM 3-isobutyl-1-methylxanthine (IBMX), 2.5 μM dexamethasone to induce differentiation into adipose. Incubation was continued for further 11 days. After the 3T3-L1 cells were differentiated into adipose, a change in the amount of glycerol produced by lipolysis was assayed. After the cells were washed with modified Krebs-Ringer buffer, 1×10^−9 M isoproterenol was added to the cell and simultaneously a fatty acid was added thereto, followed by treatment for 2 hours. The supernatant was then recovered. The glycerol content in the supernatant was determined using Free Glycerol Determination Kit (Sigma).

[6] = test system: mouse 14273-GFP fused protein; experiment: Suppression of expression of mouse 14273-GFP fused protein by siRNA in CHO cells (enzyme immunoassay); format: cell-based; details: siRNA 20 nM cotransfected to CHO cells, incubation for a day; absorbance at 450 nm
Description: After the culture supernatant was discarded and the cells were washed with HBSS (Invitrogen), the cells were fixed with 0.01% glutaraldehyde (Wako Pure Chemical) for 5 minutes, followed by blocking with 2% BSA-containing PBS (Takara Shuzo). Anti-GFP monoclonal antibody 3E6 (Nippon Gene) diluted to 500-fold was added to the cells. After incubation at room temperature for 2 hours, the cells were washed and HRP-labeled anti-mouse IgG antibody (ICN) diluted to 500-fold was added thereto, followed by incubation at room temperature for 2 hours. After washing, TMB microwell peroxidase substrate (Funakoshi) was added to the cells. After incubation for 30 minutes, sulfuric acid was added to discontinue the color-forming reaction and absorbance was measured at 450 nm.

| Compound | change in intracellular calcium level [1] | change in intracellular calcium level [2] | cAMP production suppressing activity [3] | suppression of ACTH secretion induced by CRF [4] | also measured |
| --- | --- | --- | --- | --- | --- |
| CCCCCC/C=C\CCCCCCCC(=O)O [Palmitoleic acid] | specifically responded (increased the intracellular calcium level) | specifically responded (increased the intracellular calcium level) | – | – | – |
| CCCCC/C=C\C/C=C\C/C=C\C/C=C\CCCC(=O)O [arachidonic acid] | specifically responded (increased the intracellular calcium level) | specifically responded (increased the intracellular calcium level) | – | – | – |
| CCCC(=O)O [butyric acid] | – | – | did not show any suppressing activity | did not show any significant suppression | – |
| CCCCC/C=C\C/C=C\CCCCCCCC(=O)O [linoleic acid] | specifically responded (increased the intracellular calcium level) | specifically responded (increased the intracellular calcium level) | showed the cAMP production suppressing activity | – | – |
| CCCCC/C=C\C/C=C\CCCCCCCC(=O)OC [methyl linoleate] | – | – | – | – | glycerol production increased by isoproterenol stimulation (lipolysis) [5]: such an activity was not observed |
| CCCCCCCC/C=C\CCCCCCCC(=O)O [oleic acid] | – | – | showed the cAMP production suppressing activity | – | – |
| CC/C=C\C/C=C\C/C=C\CCCCCCCC(=O)O [α-linoleic acid] | – | – | – | suppression of ACTH secretion induced by CRF was observed more significantly | – |
| CCCCC/C=C\C/C=C\C/C=C\CCCCC(=O)O [γ-linolenic acid] | specifically responded (increased the intracellular calcium level) | specifically responded (increased the intracellular calcium level) | showed the cAMP production suppressing activity | suppression of ACTH secretion induced by CRF was observed more significantly | glycerol production increased by isoproterenol stimulation (lipolysis) [5]: resulted in lowering the glycerol production |
| m14i561: mouse 14273-specific siRNA; sense strand SEQ ID NO: 21, antisense strand SEQ ID NO: 22 (sense GGACCAGGAAAUUCCGAUUNN; antisense NNCCUGGUCCUUUAAGGCUAA; chemistry not fully specified; one strand is listed 3' to 5') | – | – | – | – | suppression of the expression level of pAKKO-14273-GFP [6]: 97% |
